Values after ≈ are worked out from the molar mass of the structure shown. Values joined by “and” are separate entries in the source; they are usually repeats but may differ in a detail not shown here. Equal entries are not always repeated. Active and inactive are the calls of the source. No cut-off for these calls is given here.
How the values were obtained:
[1] = Antioxidant activity assessed as free radical scavenging activity incubated for 30 mins under dark condition by DPPH assay; assay type: functional
[2] = Acute toxicity in zebra fish embryos assessed as lethality measured every 24 hrs for 72 hrs; parameters: species or system Danio rerio; details: zebrafish
[3] = Metal chelating activity assessed as compound-Fe2+ complex formation at 3 mM in presence of FeCl2 by UV-Vis spectra analysis
[4] = Metal chelating activity assessed as compound-Cu2+ complex formation at ratio of 1:1 by pyrocatechol violet assay; details: dose 3.0 mM
[5] = Metal chelating activity assessed as compound-Cu2+ complex formation at ratio of 2:1 by pyrocatechol violet assay; details: dose 3.0 mM
[6] = Metal chelating activity assessed as compound-Cu2+ complex formation at ratio of 0.5:1 by pyrocatechol violet assay; details: dose 3.0 mM
[7] = Metal chelating activity assessed as compound-Cu2+ complex formation at ratio of 5:1 by pyrocatechol violet assay; details: dose 3.0 mM
[8] = biological target: Amyloid-beta precursor protein (Homo sapiens) (UniProt P05067); assay: Inhibition of amyloid beta (1 to 42) (unknown origin) aggregation in Escherichia coli BL21 (DE3) at 10 uM incubated overnight by thioflavin S based fluorescence analysis relative to control
Chain of Amyloid-beta precursor protein (Homo sapiens) (P05067 whole entry): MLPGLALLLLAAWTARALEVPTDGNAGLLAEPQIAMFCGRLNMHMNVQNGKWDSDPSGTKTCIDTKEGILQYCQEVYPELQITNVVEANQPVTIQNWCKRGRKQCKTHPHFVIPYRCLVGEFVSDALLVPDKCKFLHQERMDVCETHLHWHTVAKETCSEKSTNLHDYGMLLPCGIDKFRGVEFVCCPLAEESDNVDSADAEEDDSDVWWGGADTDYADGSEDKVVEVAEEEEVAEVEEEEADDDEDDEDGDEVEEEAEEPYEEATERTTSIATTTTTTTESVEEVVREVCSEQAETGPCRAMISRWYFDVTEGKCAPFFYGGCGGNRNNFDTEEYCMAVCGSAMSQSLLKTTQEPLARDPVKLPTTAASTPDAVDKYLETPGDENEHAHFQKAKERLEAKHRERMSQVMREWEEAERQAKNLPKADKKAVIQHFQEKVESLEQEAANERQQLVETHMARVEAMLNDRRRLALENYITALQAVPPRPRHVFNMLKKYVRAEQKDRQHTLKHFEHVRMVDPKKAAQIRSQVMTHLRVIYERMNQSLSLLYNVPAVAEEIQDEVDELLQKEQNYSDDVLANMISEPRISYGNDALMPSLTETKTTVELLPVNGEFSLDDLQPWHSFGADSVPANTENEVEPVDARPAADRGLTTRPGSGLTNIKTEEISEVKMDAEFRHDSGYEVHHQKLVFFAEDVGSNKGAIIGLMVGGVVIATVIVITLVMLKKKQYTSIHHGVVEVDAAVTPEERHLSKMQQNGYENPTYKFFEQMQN

[9] = biological target: T1, Cholinesterase (Homo sapiens, UniProt P06276); assay: Potency index, ratio of huprine-Y IC50 to test compound IC50 for inhibition of human serum BChE using butyrylthiocholine iodide as a substrate preincubated for 20 mins followed by substrate addition by spectrophotometric analysis; assay type: cell-free
T1 sequence (P06276 whole entry): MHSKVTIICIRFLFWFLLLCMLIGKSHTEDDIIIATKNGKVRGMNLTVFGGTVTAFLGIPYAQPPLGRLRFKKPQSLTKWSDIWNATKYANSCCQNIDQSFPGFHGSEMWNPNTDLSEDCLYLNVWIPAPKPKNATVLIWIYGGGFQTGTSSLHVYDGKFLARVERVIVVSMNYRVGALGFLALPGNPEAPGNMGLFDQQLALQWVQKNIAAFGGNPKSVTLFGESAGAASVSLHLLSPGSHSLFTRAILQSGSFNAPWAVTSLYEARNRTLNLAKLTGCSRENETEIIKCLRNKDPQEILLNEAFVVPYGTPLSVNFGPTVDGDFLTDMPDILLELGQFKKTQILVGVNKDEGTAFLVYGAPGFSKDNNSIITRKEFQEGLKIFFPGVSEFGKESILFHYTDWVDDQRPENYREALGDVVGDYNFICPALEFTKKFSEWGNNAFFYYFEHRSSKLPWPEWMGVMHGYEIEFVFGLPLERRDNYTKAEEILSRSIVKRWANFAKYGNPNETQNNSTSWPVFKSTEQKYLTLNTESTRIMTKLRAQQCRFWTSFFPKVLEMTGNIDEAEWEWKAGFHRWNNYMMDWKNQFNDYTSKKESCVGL

[10] = biological target: Beta-secretase 1 (Homo sapiens, UniProt P56817); assay: Inhibition of human recombinant BACE-1 expressed in Escherichia coli at 10 uM using panvera peptide as a substrate incubated for 1 hr by fluorescence analysis relative to control
Chain of Beta-secretase 1 (P56817 whole entry): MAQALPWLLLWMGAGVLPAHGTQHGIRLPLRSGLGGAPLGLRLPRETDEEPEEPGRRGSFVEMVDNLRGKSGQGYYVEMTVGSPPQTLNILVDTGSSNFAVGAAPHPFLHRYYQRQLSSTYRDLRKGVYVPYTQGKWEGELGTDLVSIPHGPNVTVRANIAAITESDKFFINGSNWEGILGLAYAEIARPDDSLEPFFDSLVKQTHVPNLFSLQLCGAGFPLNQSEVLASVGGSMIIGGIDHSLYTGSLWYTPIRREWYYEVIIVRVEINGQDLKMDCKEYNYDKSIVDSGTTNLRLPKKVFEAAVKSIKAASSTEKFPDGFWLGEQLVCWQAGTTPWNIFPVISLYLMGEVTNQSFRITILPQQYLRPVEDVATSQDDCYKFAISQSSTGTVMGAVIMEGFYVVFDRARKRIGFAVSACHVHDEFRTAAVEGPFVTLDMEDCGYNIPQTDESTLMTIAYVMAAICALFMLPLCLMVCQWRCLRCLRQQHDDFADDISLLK

[11] = biological target: T2, Acetylcholinesterase (Homo sapiens, UniProt P22303); assay: Potency index, ratio of donepezil IC50 to test compound IC50 for inhibition of human recombinant AChE using acetylthiocholine iodide as a substrate preincubated for 20 mins followed by substrate addition by spectrophotometric analysis
T2 sequence (P22303 whole entry): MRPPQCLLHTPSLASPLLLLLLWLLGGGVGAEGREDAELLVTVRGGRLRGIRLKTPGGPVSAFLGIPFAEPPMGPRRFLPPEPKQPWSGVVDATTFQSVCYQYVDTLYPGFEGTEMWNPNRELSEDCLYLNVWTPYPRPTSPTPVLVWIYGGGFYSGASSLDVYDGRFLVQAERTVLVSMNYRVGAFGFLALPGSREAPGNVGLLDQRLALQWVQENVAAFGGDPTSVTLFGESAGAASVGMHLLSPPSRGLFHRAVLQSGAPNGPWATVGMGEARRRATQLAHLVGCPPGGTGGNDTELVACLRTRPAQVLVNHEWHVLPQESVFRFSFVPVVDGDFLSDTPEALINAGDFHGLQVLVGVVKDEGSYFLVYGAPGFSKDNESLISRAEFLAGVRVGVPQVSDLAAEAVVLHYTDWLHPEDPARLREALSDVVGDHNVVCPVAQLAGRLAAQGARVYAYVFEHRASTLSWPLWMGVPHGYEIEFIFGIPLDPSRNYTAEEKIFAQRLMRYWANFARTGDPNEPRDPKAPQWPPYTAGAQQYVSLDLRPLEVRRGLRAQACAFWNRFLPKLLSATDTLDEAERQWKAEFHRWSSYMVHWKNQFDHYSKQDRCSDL

[12] = biological target: T1, Cholinesterase
Description: Inhibition of human serum BChE using butyrylthiocholine iodide as a substrate preincubated for 20 mins followed by substrate addition by spectrophotometric analysis

[13] = biological target: T1, Cholinesterase; assay: Potency index, ratio of rhein-huprine hybrid IC50 to test compound IC50 for inhibition of human serum BChE using butyrylthiocholine iodide as a substrate preincubated for 20 mins followed by substrate addition by spectrophotometric analysis; assay type: cell-free
[14] = Permeability of the compound in PBS/EtOH by PAMPA-BBB assay; assay type: ADME; details: read-out: permeability
[15] = biological target: Microtubule-associated protein tau (Homo sapiens) (UniProt P10636); assay: Inhibition of tau aggregation (unknown origin) in Escherichia coli BL21 (DE3) at 10 uM incubated overnight by thioflavin S based fluorescence analysis relative to control
Chain of Microtubule-associated protein tau (Homo sapiens) (P10636 whole entry): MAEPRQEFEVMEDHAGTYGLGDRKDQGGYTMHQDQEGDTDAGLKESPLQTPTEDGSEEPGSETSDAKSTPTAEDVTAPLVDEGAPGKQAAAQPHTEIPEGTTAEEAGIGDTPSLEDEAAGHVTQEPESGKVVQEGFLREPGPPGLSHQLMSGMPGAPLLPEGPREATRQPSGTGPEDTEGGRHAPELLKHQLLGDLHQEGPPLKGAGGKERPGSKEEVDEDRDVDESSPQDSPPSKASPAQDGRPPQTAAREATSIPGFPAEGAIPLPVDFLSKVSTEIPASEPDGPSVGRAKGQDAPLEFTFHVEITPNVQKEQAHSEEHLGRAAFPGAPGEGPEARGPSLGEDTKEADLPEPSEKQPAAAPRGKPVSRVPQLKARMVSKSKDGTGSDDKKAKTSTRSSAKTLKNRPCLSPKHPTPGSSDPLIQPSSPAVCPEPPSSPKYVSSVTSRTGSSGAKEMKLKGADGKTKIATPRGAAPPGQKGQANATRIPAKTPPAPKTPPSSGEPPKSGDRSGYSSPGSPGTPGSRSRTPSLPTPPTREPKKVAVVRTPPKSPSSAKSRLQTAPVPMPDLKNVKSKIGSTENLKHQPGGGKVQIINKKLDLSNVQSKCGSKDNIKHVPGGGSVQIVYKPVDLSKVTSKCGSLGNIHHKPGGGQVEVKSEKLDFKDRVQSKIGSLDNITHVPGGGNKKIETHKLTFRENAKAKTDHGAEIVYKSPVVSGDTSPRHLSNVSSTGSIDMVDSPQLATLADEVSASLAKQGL

[16] = biological target: T2, Acetylcholinesterase; assay: Potency index, ratio of rhein-huprine hybrid IC50 to test compound IC50 for inhibition of human recombinant AChE using acetylthiocholine iodide as a substrate preincubated for 20 mins followed by substrate addition by spectrophotometric analysis
[17] = Antioxidant activity assessed as free radical scavenging activity at 500 uM incubated for 30 mins under dark condition by DPPH assay; assay type: functional
[18] = Neurotoxicity in mouse HT-22 cells assessed as decrease in cell viability at up to 25 uM by MTT assay; assay type: cell-based
[19] = biological target: T2, Acetylcholinesterase
Description: Inhibition of human recombinant AChE using acetylthiocholine iodide as a substrate preincubated for 20 mins followed by substrate addition by spectrophotometric analysis

[20] = Kinetic solubility of the compound in DMSO/PBS buffer measured after 2 hrs by nephalometric analysis; assay type: physicochemical; details: for solubility kinetic at 2 h: DMSO/PBS buffer, read-out: Kinetic_solubility
[21] = biological target: T1, Cholinesterase; assay: Potency index, ratio of donepezil IC50 to test compound IC50 for inhibition of human serum BChE using butyrylthiocholine iodide as a substrate preincubated for 20 mins followed by substrate addition by spectrophotometric analysis; assay type: cell-free
[22] = Metal chelating activity assessed as compound-Cu2+ complex formation at 3 mM in presence of CuSO4 by UV-Vis spectra analysis
[23] = Metal chelating activity assessed as compound-Zn2+ complex formation at 3 mM in presence of ZnCl2 by UV-Vis spectra analysis
[24] = tested on: HT-22; assay: Neuroprotective activity against glutamate induced neuronal death in mouse HT-22 cells assessed as increase in cell viability by MTT assay; assay type: functional, cell-based; details: dose 1-25 µM
[25] = tested on: HT-22; assay: Neuroprotective activity against glutamate induced neuronal death in mouse HT-22 cells assessed as increase in cell viability at 1 to 25 uM by MTT assay; assay type: functional, cell-based; details: dose 1-25 µM
[26] = tested on: HT-22; assay: Neuroprotective activity against glutamate induced neuronal death in mouse HT-22 cells assessed as increase in cell viability at 25 uM by MTT assay; assay type: functional, cell-based

O=C1O[C@H]([C@@H](O)CO)C(O)=C1O [ASCORBIC ACID] showed an EC50 [1] of 11800 nM.

Molecule CC1=CC2Cc3nc4cc(Cl)ccc4c(N)c3C(C1)C2 (racemic) [HUPRINE Y] has an LC50 at 72 h [2] of 20900 nM.

For O=C(O)CN(CCN(CC(=O)O)CC(=O)O)CC(=O)O, the Activity [3] was “Active”, the Activity [4] was “Active” and the Activity [5] was “Active”. For the same molecule, the Activity [6] was “Active” and the Activity [7] was “Active”.

For CC1=CC2Cc3nc4cc(Cl)ccc4c(NCCCCCCCCC(=O)N4CCNC(=O)C4)c3C(C1)C2 (stereo not drawn), the inhibition [8] was 9.7%, the Ratio IC50 [9] was 2 and the LC50 at 72 h [2] was > 100000 nM. For the same molecule, the inhibition [10] was “inactive”, the Ratio IC50 [11] was < 65 and the IC50 [12] was 74.8 nM. It also gave a Ratio IC50 [13] of 7, a Papp [14] of 4.9 ×10⁻⁶ cm/s and an inhibition [15] of 15%. For the same molecule, the Ratio IC50 [16] was < 9, the Activity [17] was “inactive” and the Activity [18] was “Non-Toxic”. The IC50 [19] was 0.41 nM, the solubility kinetic at 2 h [20] was 43.3 µg/mL (≈ 82.8 µM) and the Ratio IC50 [21] was 79.

CC[N+](C)(CC)CCC[n+]1c(-c2ccccc2)c2cc(N)ccc2c2ccc(N)cc21 gave an inhibition [8] of 39.2%.

In the case of CC1=CC2Cc3nc4cc(Cl)ccc4c(NCCCCCCCCCNC(=O)c4cc(O)c5c(c4)C(=O)c4cccc(O)c4C5=O)c3C(C1)C2 (stereo not drawn), the inhibition [8] is reported as 47.9%, the inhibition [15] is reported as 29.6% and the Kinetic_solubility ([20]; 2 h) is reported as 19.7 uM and 14.8 ug ml-1.

For CC1=CC2Cc3nc4cc(Cl)ccc4c(NCCCCCCCCC(=O)Nc4cn[nH]c4)c3C(C1)C2 (stereo not drawn), the Activity [22] was “Active”, the Activity [3] was “Active” and the inhibition [8] was 32.6%. For the same molecule, the Ratio IC50 [9] was 2, the Activity [23] was “Active” and the LC50 at 72 h [2] was 69100 nM. For the same molecule, the Activity [4] was “Active”, the inhibition [10] was 16.2% and the Ratio IC50 [11] was < 65. For the same molecule, the Activity [5] was “Active”, the IC50 [12] was 64 nM and the Activity [6] was “Active”. The Activity [24] was “Dose-Dependent Effect”, the Ratio IC50 [13] was 7 and the Papp [14] was 5.9 ×10⁻⁶ cm/s. The inhibition [15] was 45.3%, the Ratio IC50 [16] was < 9 and the Activity [7] was “Active”. The EC50 [1] was 19600 nM, the Activity [18] was “Non-Toxic” and the IC50 [19] was 2.39 nM. For the same molecule, the solubility kinetic at 2 h [20] was 9.3 µg/mL (≈ 18.4 µM) and the Ratio IC50 [21] was 79.

With CC1=CC2Cc3nc4cc(Cl)ccc4c(NCCCCCCCCC(=O)NCc4cc[nH]c(=O)c4)c3C(C1)C2 (stereo not drawn) the inhibition [8] was 19.9%, the Ratio IC50 [9] was 2 and the LC50 at 72 h [2] was > 100000 nM. The inhibition [10] was “inactive”, the Ratio IC50 [11] was < 65 and the IC50 [12] was 75.8 nM. The Ratio IC50 [13] was 7, the Papp [14] was 4.4 ×10⁻⁶ cm/s and the inhibition [15] was 20.9%. The Ratio IC50 [16] was < 9, the EC50 [1] was 90600 nM and the Activity [18] was “Non-Toxic”. The IC50 [19] was 0.63 nM, the solubility kinetic at 2 h [20] was 13.8 µg/mL (≈ 25.2 µM) and the Ratio IC50 [21] was 79.

In the case of CC1=CC2Cc3nc4cc(Cl)ccc4c(NCCCCCCCCCNC(=O)c4ccc[nH]c4=O)c3C(C1)C2 (stereo not drawn), the Activity [22] is reported as “Active”, the inhibition [8] is reported as 42.3% and the Ratio IC50 [9] is reported as 2. For the same molecule, the Activity [23] was “Active”, the LC50 at 72 h [2] was 57800 nM and the Activity [25] was “inactive”. The inhibition [10] was 6.92%, the Ratio IC50 [11] was < 65 and the IC50 [12] was 31.9 nM. The Ratio IC50 [13] was 7, the Papp [14] was 6.7 ×10⁻⁶ cm/s and the inhibition [15] was 48.5%. The Ratio IC50 [16] was < 9, the Activity [17] was “inactive” and the Activity [18] was “Non-Toxic”. For the same molecule, the IC50 [19] was 1.82 nM, the solubility kinetic at 2 h [20] was 7.7 µg/mL (≈ 14.1 µM) and the Ratio IC50 [21] was 79.

With O=c1c(O)c(-c2ccc(O)c(O)c2)oc2cc(O)cc(O)c12 the Activity [26] was “Active”.

Reference: ChEMBL document CHEMBL4842362, “From virtual screening hits targeting a cryptic pocket in BACE-1 to a nontoxic brain permeable multitarget anti-Alzheimer lead with disease-modifying and cognition-enhancing effects” (Eur J Med Chem, 2021)
